Legend:
Assay type in all cases: physicochemical
[1] = Weight percent of drug loaded into MNF (entrapment, RP-HPLC); conditions: HCO-60 4 wt %, Octoxynol-40 0.01 wt %
Protocol: To determine the entrapment efficiency of the formulation, all the prepared formulations were subjected to entrapment efficiency test. Briefly, formulations were vortex mixed for homogeneity and 1 mL was transferred to a fresh (1.5 mL) eppendorf tube. Each formulation was lyophilized to obtain a solid at the bottom of eppendorf tube. The obtained solid was suspended in 1 mL of organic solvent (diethyl ether) to generate reverse micelles and release the drug into the external organic solvent. The organic solvent was evaporated overnight in speed vacuum. The resultant reversed micelles were resuspended in 1 mL of 2-propanol (dilution factor was taken into account) and further diluted to determine the concentration of compound 1001 entrapped in each micellar preparation with HPLC. The entrapment efficiency of the formulation was calculated with the following formula (wherein MNF=Mixed Nanomicellar Formulation): […]
In vitro analysis of compound 1001 was performed by a reversed phase high performance liquid chromatography (RP-HPLC) method with a Shimadzu HPLC pump (Shimadzu, Shimadzu Scientific instruments, Columbia, Md.), Alcott autosampler (model 718 AL), Shimadzu UV/Visible detector (Shimadzu, SPD-20A/20AV, USA), ODS column (5 μm, 150×4.6 mm) thermostated at 40°±1 C and Hewlett Packard HPLC integrator (Hewlett Packard, Palo Alto, Calif.). The mobile phase was comprised of methanol (MeOH), water and trifluoroacetic acid (TFA) (70:30:0.05% v/v) which was set at a flow rate of 0.5 mL/min. Detection wavelength was set at 272 nm. The sample tray temperature was maintained at 4° C. Calibration curve (0.5 to 5 μg/mL) for compound 1001 was prepared by making appropriate dilutions from the stock solution in 2-propanol. An injection volume of 10 μl was injected into the HPLC column for analysis. All the standards and samples prepared were stored at 4° C. before and during the analysis.
(§1) Mixed nanomicellar formulation encapsulating compound 1001 was prepared by solvent evaporation method in two steps: 1) Preparation of basic formulation and 2) rehydration. In step one, compound 1001, HCO-60 and octoxynol-40 were dissolved separately in 0.3 mL of ethyl acetate. These three solutions were mixed together in 15-mL centrifuge tube. The resultant mixture was vortexed to obtain a homogenous solution. Ethyl acetate solvent was removed with speed vacuum to obtain a solid thin film. The residue was kept overnight under high vacuum at room temperature to remove residual organic solvent. In step two, the resultant thin film was hydrated with 1 mL of double distilled deionized water by vortexing the solution. The rehydrated formulation was suspended in 2× phosphate buffer solution, (pH 6.5). It was filtered through 0.2 μm nylon filter membrane to remove the unentrapped drug aggregates and other foreign particulates. The entrapment of compound 1001 was determined by RP-HPLC following disruption of the micelles and solubilization of 1001 in the diluent (2-propanol) as described below
(§2) Weight percent of drug loaded into MNF was determined following the method for entrapment efficiency. Size and polydispersity index of the formulations was determined with Malvern zetasizer as described above. The formulations appear clear and have small size and narrow size distribution.

[2] = Appearance of compound 1001 MNF, solvent evaporation method; conditions: HCO-60 4 wt %, Octoxynol-40 0.01 wt %
Protocol: as §1, §2

[3] = Physical appearance, melt method, HCO-40 and compound 1001; conditions: 1001 4 wt %
Protocol: (§3) The preparation of MNF encapsulating compound 1001 (neat oil) can be divided into two steps. […] […] To this melt polymer compound 1001 (˜20 mg), thermostated at 40° C., was added and mixed for homogenous distribution. […] (in refrigerator).
(§4) This aqueous solution was allowed to reach room temperature, under natural conditions. The pH of the solution was adjusted to 5.5 and the volume was made up with 2× phosphate buffer saline (pH 5.5) containing octoxynol-40 (0.01 wt %) and PVP-K-90 (1.2 wt %). The formulation was filtered through 0.2 μm nylon filter to remove any foreign material and obtain a clear homogenous aqueous RX-1001 formulation.
(§5) The results obtained for physical appearance of the mixture, different phases, at different temperatures and appearance of final formulation are summarized in Tables 3a-3c.

[4] = Physical appearance, melt method, HCO-60 and compound 1001; conditions: 1001 4 wt %; for Resuspend in water: water at 40° C.; for Physical appearance at room temperature (25° C.): melt mixture
Protocol: as §3, §4, §5

[5] = 1001 initially added 0.035 wt %
[6] = 1001 initially added 0.070 wt %
[7] = 1001 initially added 0.095 wt %
[8] = 1001 initially added 0.120 wt %
[9] = 1001 initially added 0.250 wt %
[10] = 1001 initially added 0.300 wt %
[11] = 1001 initially added 0.400 wt %

Final formulation ([3]; HCO-40 0.5 wt %): Emulsion
Mixture physical appearance at room temperature (25° C.) ([3]; HCO-40 0.5 wt %): Viscous yellow liquid
Resuspend in water ([3]; HCO-40 0.5 wt %): Emulsion
Final formulation ([3]; HCO-40 0.75 wt %): Emulsion
Mixture physical appearance at room temperature (25° C.) ([3]; HCO-40 0.75 wt %): Viscous yellow liquid
Resuspend in water ([3]; HCO-40 0.75 wt %): Emulsion
Final formulation ([3]; HCO-40 1.0 wt %): Emulsion
Mixture physical appearance at room temperature (25° C.) ([3]; HCO-40 1.0 wt %): Viscous yellow liquid
Resuspend in water ([3]; HCO-40 1.0 wt %): Emulsion
Final formulation ([3]; HCO-40 1.25 wt %): Emulsion
Mixture physical appearance at room temperature (25° C.) ([3]; HCO-40 1.25 wt %): Viscous yellow liquid
Resuspend in water ([3]; HCO-40 1.25 wt %): Emulsion
Final formulation ([3]; HCO-40 1.5 wt %): Emulsion
Mixture physical appearance at room temperature (25° C.) ([3]; HCO-40 1.5 wt %): Viscous yellow liquid
Resuspend in water ([3]; HCO-40 1.5 wt %): Emulsion
Final formulation ([3]; HCO-40 1.75 wt %): Emulsion
Mixture physical appearance at room temperature (25° C.) ([3]; HCO-40 1.75 wt %): Viscous yellow liquid
Resuspend in water ([3]; HCO-40 1.75 wt %): Emulsion
Final formulation ([3]; HCO-40 2.0 wt %): Emulsion
Mixture physical appearance at room temperature (25° C.) ([3]; HCO-40 2.0 wt %): Viscous yellow liquid
Resuspend in water ([3]; HCO-40 2.0 wt %): Emulsion
Final formulation ([3]; HCO-40 2.25 wt %): Emulsion
Mixture physical appearance at room temperature (25° C.) ([3]; HCO-40 2.25 wt %): Viscous yellow liquid
Resuspend in water ([3]; HCO-40 2.25 wt %): Emulsion
Final formulation ([3]; HCO-40 2.5 wt %): Yellow color
Mixture physical appearance at room temperature (25° C.) ([3]; HCO-40 2.5 wt %): Viscous yellow liquid
Resuspend in water ([3]; HCO-40 2.5 wt %): Yellow
Final formulation ([3]; HCO-40 2.75 wt %): Pale yellow
Mixture physical appearance at room temperature (25° C.) ([3]; HCO-40 2.75 wt %): Viscous yellow liquid
Resuspend in water ([3]; HCO-40 2.75 wt %): Pale
Final formulation ([3]; HCO-40 3.0 wt %): Clear solution
Mixture physical appearance at room temperature (25° C.) ([3]; HCO-40 3.0 wt %): Viscous yellow liquid
Resuspend in water ([3]; HCO-40 3.0 wt %): Clear
Final formulation ([3]; HCO-40 4.0 wt %): Clear solution
Mixture physical appearance at room temperature (25° C.) ([3]; HCO-40 4.0 wt %): Viscous yellow liquid
Resuspend in water ([3]; HCO-40 4.0 wt %): Clear
Final formulation (make up with 2X buffer containing 0.01% Oc-40) ([4]; HCO-60 1.0 wt %): Emulsion
Resuspend in water ([4]; HCO-60 1.0 wt %): Emulsion
Final formulation (make up with 2X buffer containing 0.01% Oc-40) ([4]; HCO-60 2.0 wt %): Pale yellow clear
Resuspend in water ([4]; HCO-60 2.0 wt %): Forms pale
Final formulation (make up with 2X buffer containing 0.01% Oc-40) ([4]; HCO-60 2.25 wt %): Pale yellow clear
Resuspend in water ([4]; HCO-60 2.25 wt %): Forms pale
Final formulation (make up with 2X buffer containing 0.01% Oc-40) ([4]; HCO-60 2.5 wt %): Pale yellow clear
Resuspend in water ([4]; HCO-60 2.5 wt %): Forms very
Final formulation (make up with 2X buffer containing 0.01% Oc-40) ([4]; HCO-60 2.75 wt %): Clear solution
Resuspend in water ([4]; HCO-60 2.75 wt %): Forms very
Final formulation (make up with 2X buffer containing 0.01% Oc-40) ([4]; HCO-60 3.0 wt %): Clear solution
Resuspend in water ([4]; HCO-60 3.0 wt %): Clear solution
Final formulation (make up with 2X buffer containing 0.01% Oc-40) ([4]; HCO-60 3.5 wt %): Clear solution
Resuspend in water ([4]; HCO-60 3.5 wt %): Clear solution
Final formulation (make up with 2X buffer containing 0.01% Oc-40) ([4]; HCO-60 4.0 wt %): Clear solution
Resuspend in water ([4]; HCO-60 4.0 wt %): Clear solution
Physical appearance at room temperature (25° C.) ([4]; HCO-60 1.0 wt %): Pale yellow half
Physical appearance at room temperature (25° C.) ([4]; HCO-60 2.0 wt %): Pale yellow
Physical appearance at room temperature (25° C.) ([4]; HCO-60 2.25 wt %): Pale yellow waxy
Physical appearance at room temperature (25° C.) ([4]; HCO-60 2.5 wt %): Pale yellow waxy
Physical appearance at room temperature (25° C.) ([4]; HCO-60 2.75 wt %): Pale yellow waxy
Physical appearance at room temperature (25° C.) ([4]; HCO-60 3.0 wt %): Pale yellow waxy
Physical appearance at room temperature (25° C.) ([4]; HCO-60 3.5 wt %): Pale yellow waxy
Physical appearance at room temperature (25° C.) ([4]; HCO-60 4.0 wt %): Pale yellow waxy
Structure (SMILES): C#CC[C@@H](O)/C=C/C=C/C#C[C@@H](O)CCCC(=O)OC(C)C [compound 1001]
1001 (loaded in mixed micelles) wt % [1, 5]: 0.033 wt %
1001 (loaded in mixed micelles) wt % [1, 6]: 0.065 wt %
1001 (loaded in mixed micelles) wt % [1, 7]: 0.084 wt %
1001 (loaded in mixed micelles) wt % [1, 8]: 0.11 wt %
1001 (loaded in mixed micelles) wt % [1, 9]: 0.26 wt %
1001 (loaded in mixed micelles) wt % [1, 10]: 0.32 wt %
1001 (loaded in mixed micelles) wt % [1, 11]: 0.45 wt %
Result [2, 5]: Clear/transparent
Result [2, 6]: Clear/transparent
Result [2, 7]: Clear/transparent
Result [2, 8]: Pale yellow color
Result [2, 9]: Yellow color
Result [2, 10]: Yellow color
Result [2, 11]: Yellow color

Source: US10441630B2, “Topical formulations and uses thereof” (OCULAR TECHNOLOGIES SARL, priority 2012, dated 2019)
